Assay results published in ChEMBL document CHEMBL4251584, “Xanthine oxidase inhibitory activity of natural and hemisynthetic flavonoids from Gardenia oudiepe (Rubiaceae) in vitro and molecular docking studies” (Eur J Med Chem, 2018).
pIC50: −log10 of the molar value.

Key:
[1] = biological target: T1, Xanthine dehydrogenase/oxidase (Bos taurus, UniProt P80457); assay: Potency index, ratio of IC50 for allopurinol to IC50 for test compound for inhibition of bovine milk xanthine oxidase using xanthine as substrate preincubated for 15 mins followed by substrate addition measured after 30 mins by UV-VIS spectrophotometric analysis; settings: cattle, 0.5 h
T1 sequence (P80457 whole entry): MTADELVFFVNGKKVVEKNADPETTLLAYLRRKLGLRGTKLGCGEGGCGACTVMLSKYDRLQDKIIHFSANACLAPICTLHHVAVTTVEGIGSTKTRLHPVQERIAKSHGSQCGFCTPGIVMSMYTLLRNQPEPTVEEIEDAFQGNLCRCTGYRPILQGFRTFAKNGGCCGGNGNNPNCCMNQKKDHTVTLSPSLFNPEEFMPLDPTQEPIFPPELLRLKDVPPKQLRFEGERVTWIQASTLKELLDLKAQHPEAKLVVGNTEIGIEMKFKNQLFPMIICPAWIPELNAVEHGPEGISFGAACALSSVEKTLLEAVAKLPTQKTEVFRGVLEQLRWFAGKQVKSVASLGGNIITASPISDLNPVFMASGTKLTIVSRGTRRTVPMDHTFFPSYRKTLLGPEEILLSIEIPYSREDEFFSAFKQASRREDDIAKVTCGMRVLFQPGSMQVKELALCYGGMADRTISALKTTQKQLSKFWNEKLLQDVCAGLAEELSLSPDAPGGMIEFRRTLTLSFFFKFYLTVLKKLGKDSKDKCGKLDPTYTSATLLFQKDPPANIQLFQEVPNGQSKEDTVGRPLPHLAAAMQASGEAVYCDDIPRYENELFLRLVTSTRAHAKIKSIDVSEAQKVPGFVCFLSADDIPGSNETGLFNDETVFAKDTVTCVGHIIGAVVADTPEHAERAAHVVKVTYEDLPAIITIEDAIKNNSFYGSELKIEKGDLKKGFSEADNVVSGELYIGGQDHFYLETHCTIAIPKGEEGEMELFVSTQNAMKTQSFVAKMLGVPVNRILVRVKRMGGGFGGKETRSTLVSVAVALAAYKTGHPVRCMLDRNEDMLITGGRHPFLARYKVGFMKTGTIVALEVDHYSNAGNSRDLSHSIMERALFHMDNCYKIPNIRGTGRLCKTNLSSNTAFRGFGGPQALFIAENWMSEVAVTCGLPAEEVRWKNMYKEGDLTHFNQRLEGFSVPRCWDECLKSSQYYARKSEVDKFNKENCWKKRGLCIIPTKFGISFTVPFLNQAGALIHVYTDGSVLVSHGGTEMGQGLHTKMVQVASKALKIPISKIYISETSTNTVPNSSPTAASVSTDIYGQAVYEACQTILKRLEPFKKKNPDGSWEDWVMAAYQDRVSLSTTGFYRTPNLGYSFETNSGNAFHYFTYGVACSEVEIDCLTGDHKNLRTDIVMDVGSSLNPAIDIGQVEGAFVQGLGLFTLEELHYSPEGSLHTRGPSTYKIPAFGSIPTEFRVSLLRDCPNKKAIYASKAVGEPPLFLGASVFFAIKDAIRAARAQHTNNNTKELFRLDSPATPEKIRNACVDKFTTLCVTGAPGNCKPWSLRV

[2] = biological target: T1, Xanthine dehydrogenase/oxidase; assay: Inhibition of bovine milk xanthine oxidase using xanthine as substrate preincubated for 15 mins followed by substrate addition measured after 30 mins by UV-VIS spectrophotometric analysis; settings: for inhibition (INH): cattle, 0.5 h

Row | Structure (SMILES) | Ratio IC50 [1] | pIC50 [2] | inhibition (INH) [2]
1 | COc1cc(-c2oc3cc(O)cc(O)c3c(=O)c2OC)cc(O)c1OC | 3 | 7.05 | Dose-dependent effect
2 | COc1cc(-c2oc3cc(O)c(OC)c(O)c3c(=O)c2OC)cc(OC)c1OC | – | 5.34 | Dose-dependent effect
3 | COc1cc(-c2oc3cc(O)c(OC)c(O)c3c(=O)c2OC)cc(O)c1OC | – | 5.16 | Dose-dependent effect
4 | COc1cc(O)c2c(=O)c(OC)c(-c3cc(O)c(OC)c(OC)c3)oc2c1 | – | 4.68 | Dose-dependent effect
5 | COc1ccc(-c2oc3cc(OC)c(OC)c(O)c3c(=O)c2OC)cc1 | – | 4.83 | Dose-dependent effect
6 | COc1ccc(-c2oc3cc(OC)cc(O)c3c(=O)c2OC)cc1 | – | 5.01 | Dose-dependent effect
7 | COc1c(O)cc2oc(-c3ccc(O)cc3)c(OC)c(=O)c2c1O [3,6-DIMETHOXY KAEMPFEROL] | 5 | 7.30 | Dose-dependent effect
8 | COc1c(-c2ccc(O)cc2)oc2cc(O)cc(O)c2c1=O [ISOKAEMPFERIDE] | 63 | 8.40 | Dose-dependent effect
9 | COc1ccc(-c2oc3cc(O)c(OC)c(O)c3c(=O)c2OC)cc1 [SANTIN] | – | 6.66 | Dose-dependent effect
